These results are taken from patent US20250223301A1, “KINASE INHIBITORS, PREPARATION METHODS AND USES THEREOF” (InventisBio Co., Ltd., priority 2022, published 2025).

One assay addresses DGKa (Homo sapiens (Human), UniProt P23743). Kind of assay: biochemical.
In a further assay the target is DGKz (Homo sapiens (Human), UniProt Q13574). Kind of assay: DGK ADP-Glo kinase assay (DGKz). The class given is biochemical. As to conditions: 5 nM DGKz, 15 uM ATP. The procedure: Luminescence was recorded using an Tecan SPARK microplate reader.
The next assay deals with Jurkat cells. As to the kind of experiment: Jurkat IL-2 assay. The class given is cell-based. The note with it: Homo sapiens, anti-CD3/CD28 stimulation overnight, IL-2 level. In short, it runs like this: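 Cells in RPMI-1640 with 10% FBS received compound solution (5 uM to 2.3 nM, 8 points, 3-fold dilution) for 60 minutes at 37° C. They were then stimulated overnight at 37° C. with anti-CD3/CD28 antibody. IL-2 in the supernatant was quantified by immunoassay kit and plotted against log compound concentration.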

A further assay deals with PBMC. As to the kind of experiment: Human PBMC IL-2 assay. The class given is cell-based. As to conditions: anti-CD3/CD28 stimulation overnight, IL-2 level. In short, it runs like this:
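Healthy-donor frozen PBMC were thawed, rested 4 h at 37 °C and plated at ~200,000 cells/well. Cells were preincubated 60 min at 37 °C with compound solution (10 uM to 0.6 nM, 8 points, 4-fold, as added), then stimulated overnight with anti-CD3/CD28. Supernatant IL-2 was quantified by immunoassay kit and plotted against log compound concentration.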

Structures are written as SMILES.

Sequence of DGKz (Q13574 whole entry): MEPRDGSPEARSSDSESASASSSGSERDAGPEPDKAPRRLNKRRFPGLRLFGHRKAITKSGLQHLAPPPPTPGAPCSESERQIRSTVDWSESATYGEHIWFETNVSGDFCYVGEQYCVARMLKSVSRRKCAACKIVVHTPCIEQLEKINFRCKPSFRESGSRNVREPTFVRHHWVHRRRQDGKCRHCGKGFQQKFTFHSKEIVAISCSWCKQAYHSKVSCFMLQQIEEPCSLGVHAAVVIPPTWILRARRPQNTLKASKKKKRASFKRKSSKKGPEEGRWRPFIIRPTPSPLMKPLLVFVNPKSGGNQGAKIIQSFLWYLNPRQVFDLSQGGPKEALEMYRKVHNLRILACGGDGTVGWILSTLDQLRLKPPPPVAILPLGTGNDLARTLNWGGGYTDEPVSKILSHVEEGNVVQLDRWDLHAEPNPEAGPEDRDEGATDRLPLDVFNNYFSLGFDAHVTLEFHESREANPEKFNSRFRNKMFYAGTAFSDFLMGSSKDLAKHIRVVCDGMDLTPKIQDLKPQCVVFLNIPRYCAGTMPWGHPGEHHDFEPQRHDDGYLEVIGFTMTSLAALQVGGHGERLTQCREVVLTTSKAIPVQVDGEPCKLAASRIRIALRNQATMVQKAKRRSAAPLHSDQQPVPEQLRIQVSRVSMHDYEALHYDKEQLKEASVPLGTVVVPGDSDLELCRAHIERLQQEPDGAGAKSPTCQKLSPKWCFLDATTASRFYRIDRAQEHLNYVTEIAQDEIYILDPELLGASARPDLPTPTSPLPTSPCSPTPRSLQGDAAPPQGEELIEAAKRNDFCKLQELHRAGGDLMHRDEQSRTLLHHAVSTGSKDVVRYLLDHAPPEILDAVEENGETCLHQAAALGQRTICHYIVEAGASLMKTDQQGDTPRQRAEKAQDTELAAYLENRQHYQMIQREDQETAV
Sequence of DGKa (P23743 whole entry): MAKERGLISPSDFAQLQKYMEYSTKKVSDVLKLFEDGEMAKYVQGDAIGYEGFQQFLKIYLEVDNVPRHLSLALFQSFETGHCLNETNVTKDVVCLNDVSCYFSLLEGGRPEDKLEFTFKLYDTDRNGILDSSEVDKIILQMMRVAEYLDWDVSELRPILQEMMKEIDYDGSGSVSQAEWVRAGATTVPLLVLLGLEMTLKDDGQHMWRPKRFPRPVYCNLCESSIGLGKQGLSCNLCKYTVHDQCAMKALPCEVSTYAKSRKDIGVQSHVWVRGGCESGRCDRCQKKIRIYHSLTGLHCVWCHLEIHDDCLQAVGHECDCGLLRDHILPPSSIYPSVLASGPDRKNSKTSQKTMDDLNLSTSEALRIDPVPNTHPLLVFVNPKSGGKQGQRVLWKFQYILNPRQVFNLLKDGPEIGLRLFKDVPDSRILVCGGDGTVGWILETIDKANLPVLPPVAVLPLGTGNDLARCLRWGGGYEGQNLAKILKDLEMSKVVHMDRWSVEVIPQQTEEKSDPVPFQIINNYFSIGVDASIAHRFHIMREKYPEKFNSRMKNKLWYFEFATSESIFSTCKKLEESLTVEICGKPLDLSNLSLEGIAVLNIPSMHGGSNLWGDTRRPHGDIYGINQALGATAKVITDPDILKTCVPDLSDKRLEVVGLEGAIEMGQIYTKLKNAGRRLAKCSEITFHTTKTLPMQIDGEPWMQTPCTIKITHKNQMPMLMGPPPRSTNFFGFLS
Method for DGKa: The DGKa and DGKz kinase assays were performed using Promega ADP-Glo kit (Promega, Cat #V9102). One microliter test compound was added to a 384-well plate. Reactions were performed in a 5 uL volume by adding 2 uL mixture of DGK enzyme and ATP in assay buffer (50 mM MOPS pH 7.5, 100 mM NaCl, 10 mM MgCl2, 1 mM CaCl2, 0.0025% BSA, and 1 mM DTT). […] The enzyme solution was incubated with test compound at 25 ? for 20 min. […] The reaction was initiated by the addition of 2 uL of substrate solution (7 uM 1.2-dioleoyl-sn-glycerol, 5 mM octyl-b-D-glucopyranoside) in the 5 uL assay volume. The resulting mixture was incubated at 25° C. for 40 minutes. Next, 5 uL of ADP-Glo-reagent was added to the plate and incubated for 40 minutes. Then 10 uL of kinase detection reagent was added and incubated for 30 minutes. Luminescence was recorded using an Tecan SPARK microplate reader. 1% DMSO vehicle was used as control and no enzyme well was used as blank well.

As to `CC[C@H]1CN([C@@H](C)c2ccc(S(F)(F)(F)(F)F)cc2)[C@H](CC)CN1c1nc2nncn2c2ccc(C#N)nc12` (stereo in doubt) [Compound 88], the IC50 against DGKa came to 18 nM; at DGKz, 38 nM.

Regarding `CC[C@H]1CN([C@@H](c2ccc(S(F)(F)(F)(F)F)cc2)C2CC2)[C@H](CC)CN1c1nc(=O)n(C)c2ccc(C#N)nc12` (stereo in doubt) [Compound 118], the 50% inhibitory concentration (IC50) against DGKa was 22 nM; at DGKz, 610 nM.

Take `CC[C@H]1CN([C@@H](CC)c2ccc(F)c(F)c2)[C@H](CC)CN1c1nc2nncn2c2ccc(C#N)nc12` (stereo in doubt) [Compound 200]: the concentration giving a half-maximal response (EC50) with Jurkat cells came out at 86 nM; in the assay with PBMC, 42 nM.

With `CC[C@H]1CN([C@H](CC)c2ccc(F)cc2F)[C@H](CC)CN1c1nc2nncn2c2ccc(C#N)nc12` (stereo in doubt) [Compound 195], the half-maximal effective concentration (EC50) with Jurkat cells stood at 1110 nM; with PBMC, 2200 nM.

For the compound `CC[C@@H]1CN2c3c(c(=O)n(C)c4ccc(C#N)nc34)OC[C@@H]2CN1[C@@H](CC)c1ccc(C(C)(F)F)cc1` [Compound 289], the EC50 in the assay on Jurkat cells turned out to be 16 nM; in the assay on PBMC, 7 nM.

With `Cn1c(=O)c2c(c3nc(C#N)ccc31)N1CC[C@@H](Oc3ccc(C(F)(F)F)cc3)C[C@H]1CO2` [Compound 325], the EC50 with Jurkat cells was found to be 688 nM; in the assay with PBMC, 561 nM.

On to `CC[C@@H](c1ccc(C(F)(F)F)cc1)N1C[C@H]2COc3c(c4nc(C#N)ccc4n(C)c3=O)N2C[C@H]1C` (stereo in doubt) [Compound 179], for which the figures for the EC50 with Jurkat cells and with PBMC were 29 nM and 58 nM, respectively.

As to `CC[C@H](c1ccc(C(F)(F)F)c(F)c1)N1C[C@H]2COc3c(c4nc(C#N)ccc4n(C)c3=O)N2C[C@H]1C` (stereo in doubt) [Compound 328], the figures for the EC50 in the assay with Jurkat cells and with PBMC were 339 nM and 302 nM, respectively.

Take `C[C@@H]1CN2c3c(c(=O)n(C)c4ccc(C#N)nc34)OC[C@@H]2CN1[C@H](C)c1ccc(Cl)cc1` (stereo in doubt) [Compound 270]: the concentration for a half-maximal effect (EC50) with Jurkat cells came to 506 nM; in the assay with PBMC, 616 nM.

`CC[C@H]1CN([C@H](C)c2ccc(C(F)(F)F)cc2)[C@H](C)CN1c1nc2nncn2c2ccc(C#N)nc12` (stereo in doubt) [Compound 315]: the EC50 turned out to be 90 nM with Jurkat cells and 63 nM with PBMC.

On to `CCC[C@H](c1ccc(Cl)cc1)N1C[C@H]2COc3c(c4nc(C#N)ccc4n(C)c3=O)N2C[C@H]1CC` (stereo in doubt) [Compound 312], for which the EC50 with Jurkat cells stood at 218 nM; in the assay with PBMC, 49 nM.

For the compound `CC[C@@H]1CN2c3c(c(=O)n(C)c4ccc(C#N)nc34)OC[C@@H]2CN1[C@@H](CC)c1ccc(F)cc1F` (stereo in doubt) [Compound 174], the EC50 came out at 13 nM in the assay with Jurkat cells and 25 nM in the assay on PBMC.

Turning to `CC[C@@H]1CN2c3c(c(=O)n(C)c4ccc(C#N)nc34)OC[C@@H]2CN1[C@H](CC)c1ccc(C)c(F)c1` (stereo in doubt) [Compound 338], the EC50 in the assay on Jurkat cells was 86 nM; in the assay on PBMC, 153 nM.

Turning to `CC[C@@H]1CN2c3c(c(=O)n(C)c4ccc(C#N)nc34)OC[C@@H]2CN1[C@H](CC)c1ccc(Cl)c(F)c1` (stereo in doubt) [Compound 296], the figures for the EC50 in the assay on Jurkat cells and in the assay on PBMC were 91 nM and 68 nM, respectively.

Consider `CC[C@@H]1CN2c3c(c(=O)n(C)c4ccc(C#N)nc34)OC[C@@H]2CN1[C@@H](CC)c1ccc(C)c(Cl)c1` (stereo in doubt) [Compound 343], for which the EC50 with Jurkat cells amounted to 45 nM; with PBMC it was 18 nM.

With `CC[C@@H]1CN2c3c(c(=O)n(C)c4ccc(C#N)nc34)OC[C@@H]2CN1[C@@H](CC)c1ccc(C(F)(F)F)cc1Cl` (stereo in doubt) [Compound 207], the EC50 in the assay with Jurkat cells is 150 nM; with PBMC, 284 nM.

Take `CC[C@@H]1CN2c3c(c(=O)n(C)c4ccc(C#N)nc34)OC[C@@H]2CN1[C@H](CC)c1ccc(C#N)cc1` (stereo in doubt) [Compound 162]: the results for the EC50 with Jurkat cells and in the assay on PBMC were 100 nM and 786 nM, respectively.

Turning to `CC[C@@H]1CN2c3c(c(=O)n(C)c4ccc(C#N)nc34)OC[C@@H]2CN1[C@@H](CC)c1ccc(C(F)F)cc1` (stereo in doubt) [Compound 291], the EC50 in the assay on Jurkat cells stood at 10 nM; with PBMC, 11 nM.

Regarding `CC[C@@H]1CN2c3c(c(=O)n(C)c4ccc(C#N)nc34)OC[C@@H]2CN1[C@@H](CC)c1ccc(Cl)c(C(F)(F)F)c1` (stereo in doubt) [Compound 327], the EC50 in the assay on Jurkat cells came to 64 nM; in the assay with PBMC it was 103 nM.

Take `CC[C@@H]1CN2c3c(c(=O)n(C)c4ccc(C#N)nc34)OC[C@@H]2CN1[C@H](CC)c1c(Cl)cccc1Cl` (stereo in doubt) [Compound 239]: the EC50 in the assay with Jurkat cells was 687 nM; in the assay on PBMC it was 3420 nM.

For `CC[C@@H](c1ccc(Cl)cc1F)N1C[C@H]2COc3c(c4nc(C#N)ccc4n(C)c3=O)N2C[C@H]1C` (stereo in doubt) [Compound 308], the EC50 with Jurkat cells was 9 nM; in the assay on PBMC, 18 nM.

As for `CC[C@@H]1CN2c3c(c(=O)n(C)c4ccc(C#N)cc34)OC[C@@H]2CN1[C@@H](CC)c1ccc(C(F)(F)F)cc1` [Compound 210], the EC50 in the assay with Jurkat cells was found to be 565 nM; in the assay with PBMC, 1720 nM.

Turning to `CC[C@@H]1CN2c3c(c(=O)n(C)c4ccc(C#N)nc34)OC[C@@H]2CN1[C@H](c1ccc(F)cc1)c1nc(C2CC2)no1` (stereo in doubt) [Compound 160], the EC50 with Jurkat cells was 21 nM; in the assay with PBMC, 75 nM.

For the compound `CC[C@@H]1CN2c3c(c(=O)n(C)c4ccc(C#N)nc34)N(C)C(=O)[C@@H]2CN1[C@H](CC)c1ccc(C(F)(F)F)cc1` [Compound 199], the EC50 in the assay with Jurkat cells amounted to 873 nM; with PBMC, 1580 nM.

Consider `CC[C@@H]1CN2c3c(c(=O)n(C)c4ccc(C#N)nc34)OC[C@@H]2CN1[C@@H](CC)c1ccc(C)cc1` (stereo in doubt) [Compound 345], for which the EC50 stood at 18 nM in the assay with Jurkat cells and 10 nM in the assay with PBMC.

Turning to `CC[C@@H]1CN2c3c(c(=O)n(C)c4ccc(C#N)nc34)OC[C@@H]2CN1[C@@H](COC)c1ccc(C(F)(F)F)cc1` [Compound 283], the EC50 in the assay on Jurkat cells stood at 40 nM; in the assay with PBMC, 36 nM.

`CC[C@@H]1CN2c3c(c(=O)n(C)c4ccc(C#N)nc34)OC[C@@H]2CN1[C@H](CC)c1ccc(C(F)(F)F)cc1F` (stereo in doubt) [Compound 143]: the concentration giving a half-maximal response (EC50) in the assay on Jurkat cells stood at 483 nM; in the assay on PBMC, 178 nM.

As for `CC[C@H]1CN(C2CCCOc3cc(C(F)(F)F)ccc32)[C@H](CC)CN1c1nc(=O)n(C)c2ccc(C#N)nc12` (some centres unmarked) [Compound 154], the EC50 with Jurkat cells amounted to 526 nM; with PBMC it was 734 nM.

For `CC[C@@H](c1ccc(C(F)(F)F)c(F)c1)N1C[C@H]2COc3c(c4nc(C#N)ccc4n(C)c3=O)N2C[C@H]1C` (stereo in doubt) [Compound 329], the EC50 with Jurkat cells worked out at 97 nM; in the assay on PBMC, 54 nM.

Take `CC[C@@H]1CN2c3c(c(=O)n(C)c4ccc(C#N)nc34)OC[C@@H]2CN1[C@@H](CC)c1ccc(F)c(C)c1` (stereo in doubt) [Compound 337]: the EC50 in the assay on Jurkat cells is 12 nM; with PBMC it was 16 nM.

As for `CC[C@@H]1CN2c3c(c(=O)n(C)c4ccc(C#N)nc34)OC[C@@H]2CN1[C@@H](CC)c1ccc(Cl)c(F)c1` (stereo in doubt) [Compound 297], the EC50 in the assay on Jurkat cells is 34 nM; in the assay on PBMC, 12 nM.
